{"source": "patent US20070154990A1", "about": "“Assays for identifying inhibitors of fatty acid amide hydrolase” (priority 2005, published 2007)", "key": {"human FAAH [1]": {"target": "T1, human FAAH (Homo sapiens, UniProt O00519)", "T1 construct": "His6; made in house; host or cells: CHO cells, stably transfected; microsomal fraction used", "T1 sequence (O00519 1-579)": "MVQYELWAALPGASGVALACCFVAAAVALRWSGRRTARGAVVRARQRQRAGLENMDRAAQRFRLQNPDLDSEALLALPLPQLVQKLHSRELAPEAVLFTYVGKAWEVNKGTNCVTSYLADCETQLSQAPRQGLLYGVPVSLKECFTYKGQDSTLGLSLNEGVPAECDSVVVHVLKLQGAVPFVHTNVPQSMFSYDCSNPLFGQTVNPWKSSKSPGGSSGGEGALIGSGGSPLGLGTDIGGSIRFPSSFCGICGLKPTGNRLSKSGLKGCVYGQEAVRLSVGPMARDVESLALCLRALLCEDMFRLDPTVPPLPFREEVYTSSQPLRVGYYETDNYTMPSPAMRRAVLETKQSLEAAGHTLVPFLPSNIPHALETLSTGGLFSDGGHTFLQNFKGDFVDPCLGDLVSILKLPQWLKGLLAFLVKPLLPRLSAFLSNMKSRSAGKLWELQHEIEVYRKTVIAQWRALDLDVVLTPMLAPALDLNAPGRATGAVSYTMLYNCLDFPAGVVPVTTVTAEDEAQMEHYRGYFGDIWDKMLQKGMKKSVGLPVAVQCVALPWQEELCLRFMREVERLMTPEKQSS", "test": "FAAH SPA binding assay (displacement of [3H]-MAEA from FAAH-containing microsomes)", "details": "for IC50: 3 hours room temperature", "method": "FIG. 3. One embodiment of a FAAH SPA assay. […] The radioactivity was counted on a TopCount™ for one minute per sample. Each point shown is the mean±SD of triplicates from at least two independent experiments.\nFIG. 7. Inhibition of the binding of [^3H]-MAEA to FAAH-containing microsomes by FAAH inhibitors in SPA. The assay was carried out by incubating 5 μg of FAAH microsomes with 100 nM [^3H]-MAEA and 0.5 mg of WGA beads in 50 mM HEPES, 1 mM EDTA, pH 7.4, 0.1% BSA, with inhibitors in a 200 μL total reaction volume, at room temperature for 3 hours. The final concentration of DMSO in the assay was 0.5%. IC50 values were calculated by fitting the curve to a non-linear regression equation. Each point is the mean±SD of triplicate data from at least two independent experiments.\nThe SPA assay consisted of 100 nM [^3H]-MAEA (60 Ci/mmol), […] FAAH microsomes and 0.5 mg PVT-WGA beads in buffer (50 mM HEPES, pH 7.4, 1 mM EDTA and 0.1% BSA). The assays were performed in 96 well plates with a final volume of 200 μL. Components were added to the assay plates, which were agitated on a plate shaker for 3-4 hours at room temperature. The assays were then counted on a TopCount NXT (PerkinElmer, Boston, Mass.) for one minute per well. Results presented are the mean±S. E. of triplicate measurements from at least two independent experiments. The IC50 values were calculated using the GraphPad Prism 3.02 program, based on a sigmoidal dose-response equation. The screening window coefficient (Z′-factor) was calculated according to the following equation as previous described (See Zhang, J. H., T. D. Chung, and K. R. Oldenburg, A simple statistical parameter for use in evaluation and validation of high throughput screening assays, J Biomol Screen, 1999, 4: 67-73): Z=1−(3σc++3σc−)/|μc+−μc−| where, σc+ and σc− are standard deviations of positive and negative controls and μc+ and μc− are means of positive and negative controls respectively.\nAssays were performed by incubating 0.5 mg of PVT-WGA beads, 100 nM [3H]-MAEA, and 5 μg of FAAH-containing microsomes. Assays were incubated in the wells of 96-well plates."}, "human FAAH [2]": {"target": "T1, human FAAH", "test": "[3H]-anandamide (AEA) hydrolysis by FAAH microsomes", "assay_type": "biochemical", "method": "0.5 μg of human FAAH microsomes were incubated with 1 μM [^3H]-AEA substrate and indicated concentrations of MAEA in assay buffer at room temperature for 2 hours. Released [^3H]-ethanolamine was extracted by chloroform/methanol and counted.\nPanel (B) Effect of MAEA on the kinetics of AEA hydrolysis by FAAH-containing microsomes. 0.5 μg of the microsomes comprising FAAH were incubated with the indicated [^3H]-AEA concentrations for 30 minutes with or without 10 μM of MAEA. Released [^3H]-ethanolamine was measured in a scintillation counter.\nMicrosomes (0.5 μg/assay) prepared from CHO cells expressing human FAAH, were incubated with the indicated concentrations of anandamide (ethanolamine 1-[^3H]) for 30 min at 25° C. in 50 mM HEPES, pH 7.4, 1 mM EDTA and 0.1% BSA. The reaction was terminated by the addition of 2 volumes of chloroform/methanol (1:1, v/v). The samples were vortexed and centrifuged at 1000 g for 3 minutes. The aqueous phase, containing [^3H]-ethanolamine, was collected and measured by liquid scintillation counting. Results are presented as the mean±S.E. of triplicate measurements from at least two independent experiments. The observed rate constants (apparent Km) were calculated using GraphPad Prism 3.02, based on a Michaelis-Menten (one site binding hyperbola) equation Y=BmaxX/[Km+X].\nThe AEA hydrolysis assays were performed according to the protocols described in Example 1. 0.5 μg of FAAH-containing microsomes per assay were incubated with 8 different concentrations (in a range from 1 μM to 10 μM) of compound in the presence of 1 μM […] in 50 mM HEPES, pH 7.5, 1 mM EDTA, 0.1% BSA at room temperature for 2 hours. ^3H-ethanolamine released from AEA hydrolysis was measured by liquid scintillation counting. Results were analyzed using a sigmoidal dose-response equation by GraphPad Prism 3.02. Numerical results are the mean of triplicate measurements from at least two independent experiments."}, "[3]": {"test": "SPA binding of [3H]-MAEA to microsomes from CHO cells containing only vector", "set-up": "species or system Chinese hamster", "details": "5 μg microsomes from cells containing only vector", "method": "(§1) FIG. 4. […] The relative activity of FAAH-containing microsomes or those prepared from cells expressing FAAH-S241A or vector control was measured by increasing the microsomal protein concentration ranging from 0-10 μg/assay. 100 nM of [^3H]-MAEA and 0.5 mg of WGA SPA beads were incubated with indicated concentrations of microsomes at 25° C. for 3 hours. Radioactivity was measured in a TopCount™. The SPA signal (CPM) was plotted against amount of microsomal protein in the assay. Each point is the mean±SD of triplicate data from at least two independent experiments.\n(§2) Cells were collected by centrifugation at 2000 g for 10 minutes at 4° C. in a Sorvall high-speed centrifuge. The cell pellet was then washed 3 times with PBS and resuspended in buffer containing 50 mM HEPES, pH 7.4, 1 mM EDTA, 1 μM pepstatin, 100 μM leupeptin, 0.1 mg/mL aprotinin. The cells were sonicated 5 times for 10 seconds at 15-second intervals and the cell lysate was further centrifuged at 12000 g for 20 minutes at 4° C. The supernatant was centrifuged at 100,000 g for 30 minutes in a SW28 rotor in a Beckman Optima LE-80K centrifuge. The pellet obtained was the microsomal fraction, which was resuspended in ice-cold buffer. Protein concentration was measured by the BCA method (Pierce) and the microsomal suspension adjusted to 1 mg/mL and stored in aliquots at −80° C. until use. […]"}, "inactive FAAH-S241A": {"target": "T2, inactive FAAH-S241A (Homo sapiens, UniProt O00519, S241A)", "T2 construct": "His6; made in house; host or cells: CHO cells, stably transfected; microsomal fraction used", "T2 sequence (O00519 1-579 S241A)": "T1 sequence (O00519 1-579) with S241A", "test": "SPA binding of [3H]-MAEA to microsomes with inactive FAAH-S241A mutant", "details": "5 μg microsomes containing inactive FAAH-S241A", "method": "as §1, §2"}, "FAAH microsomes": {"target": "T3, FAAH microsomes (Homo sapiens, UniProt O00519)", "T3 construct": "His6; made in house; host or cells: CHO cells, stably transfected; microsomal fraction used", "T3 sequence (O00519 1-579)": "T1 sequence (O00519 1-579)", "test": "Hydrolysis of [3H]-MAEA by FAAH microsomes", "assay_type": "biochemical", "details": "5 μg FAAH microsomes over 5 hours", "from_the_text": "R(+)-methanandamide (R-(+)-arachidonyl-1-′-hydroxy-2′-propylamide, MAEA) is an anandamide analog with a methyl group at the 1′-position of the ethanolamido head group. […] The effects of MAEA on FAAH-catalyzed anandamide hydrolysis was also examined using FAAH-containing microsomes."}, "[4]": {"details": "5 μg FAAH microsomes, 100 nM [3H]-MAEA, 0.5 mg WGA beads"}, "[5]": {"details": "0.5 μg FAAH-containing microsomes, 1 μM radiolabelled substrate, room temperature 2 hours, read-out: AEA hydrolysis (IC50)"}}, "note": "Numbering of substitutions follows the chain as printed. Like-named read-outs stand apart in the source and are kept apart here.", "data": [{"compound": "Arachidonoyl trifluoromethyl ketone [ATFK]", "values": [{"measurement": "IC50", "setting": "human FAAH [1]; [4]", "result": 87, "unit": "nM"}, {"measurement": "IC50", "setting": "human FAAH [2]; [5]", "result": 10.1, "unit": "nM"}]}, {"compound": "CCCCC/C=C\\C/C=C\\C/C=C\\C/C=C\\CCCC(=O)N[C@H](C)CO", "note": "[MAEA, R-(+)-arachidonyl-1-′-hydroxy-2′-propylamide]", "values": [{"measurement": "Kd", "setting": "human FAAH [1]; 2 μg FAAH microsomes, 0.5 mg PVT-WGA beads, estimated, read-out: Kd of specific binding to FAAH microsomes", "result": 25000, "unit": "nM"}, {"measurement": "specific binding of [3H]-MAEA to microsomes", "setting": "human FAAH [1]; 5 μg microsomes containing FAAH", "result": 90, "unit": "%"}, {"measurement": "total [3H]-MAEA bound to FAAH microsomes", "setting": "human FAAH [1]; 5 μg microsomes, 100 nM [3H]-MAEA, 0.5 mg WGA beads", "result": "~92", "unit": "%"}, {"measurement": "specific binding of [3H]-MAEA to microsomes", "setting": "[3]", "result": 6.1, "unit": "%"}, {"measurement": "specific binding of [3H]-MAEA to microsomes", "setting": "inactive FAAH-S241A", "result": 6.5, "unit": "%"}, {"measurement": "[3H]-MAEA degraded", "setting": "FAAH microsomes", "result": "less than 1.5%"}, {"measurement": "IC50", "setting": "human FAAH [2]; 0.5 μg human FAAH microsomes, 1 μM [3H]-AEA, 2 hours, read-out: IC50 of inhibition of FAAH-catalyzed anandamide hydrolysis", "result": 7400, "unit": "nM"}, {"measurement": "mode of inhibition (Lineweaver-Burk plot)", "setting": "human FAAH [2]; 10 μM MAEA", "result": "competitive FAAH inhibitor"}, {"measurement": "Vmax of AEA hydrolysis in the presence of the compound", "setting": "human FAAH [2]; MAEA at 10 μM, 30 minutes", "result": 25.82, "unit": "nmol/min/mg protein"}, {"measurement": "Km", "setting": "human FAAH [2]; MAEA at 10 μM, 30 minutes, read-out: apparent Km for AEA in the presence of the compound", "result": 62.3, "unit": "µM"}]}, {"compound": "NC(=O)c1cccc(-c2cccc(OC(=O)NC3CCCCC3)c2)c1", "note": "[URB-597]", "values": [{"measurement": "SPA counts in the presence of inhibitor", "setting": "human FAAH [1]; URB-597 1 μM, 5 μg FAAH microsomes, 100 nM [3H]-MAEA, 160 cpm without inhibitor", "result": 1932, "unit": "cpm"}, {"measurement": "effect on the interaction of [3H]-MAEA and the WGA beads", "setting": "human FAAH [1]; same concentration of URB-597 (1 μM), no microsomes", "result": "no effect"}]}, {"compound": "CCCCCCCCCCCC(=O)c1nc2ncccc2o1", "note": "[CAY-10400]", "values": [{"measurement": "IC50", "setting": "human FAAH [1]; [4]", "result": 3.1, "unit": "nM"}, {"measurement": "IC50", "setting": "human FAAH [2]; [5]", "result": 2.3, "unit": "nM"}]}, {"compound": "CCCCC/C=C\\C/C=C\\C/C=C\\C/C=C\\CCCC(=O)NCCO", "note": "[AEA, arachidonyl ethanolamide]", "values": [{"measurement": "Km", "setting": "human FAAH [2]; FAAH-containing microsomes, without MAEA, read-out: apparent Km for AEA (no inhibitor)", "result": 9.1, "unit": "µM"}]}]}
